Measured values from ChEMBL document CHEMBL4002627, “Quinolidene based monocarbonyl curcumin analogues as promising antimycobacterial agents: Synthesis and molecular docking study” (Bioorg Med Chem Lett, 2017).
Converted amounts (≈) assume the structure as drawn.

Experiments:
[1] = Selectivity index, ratio of GI90 for human MCF7 cells to MIC90 for dormant state of Mycobacterium tuberculosis H37Ra; assay type: toxicity; details: read-out: Selectivity Index
[2] = Cytotoxicity against human MCF7 cells assessed as growth inhibition at 3 ug/ml after 48 hrs by MTT assay relative to control; assay type: cell-based; details: read-out: GI
[3] = Cytotoxicity against human HCT116 cells assessed as growth inhibition at 30 ug/ml after 48 hrs by MTT assay relative to control; assay type: cell-based, HCT-116; details: read-out: GI
[4] = Selectivity index, ratio of GI90 for human A549 cells to MIC90 for dormant state of Mycobacterium tuberculosis H37Ra; assay type: toxicity; details: read-out: Selectivity Index
[5] = system: Mycobacterium tuberculosis; test: Antimycobacterial activity against dormant state of Mycobacterium tuberculosis H37Ra by two fold dilution method; assay type: functional
[6] = Cytotoxicity against human HCT116 cells assessed as growth inhibition at 3 ug/ml after 48 hrs by MTT assay relative to control; assay type: cell-based, HCT-116; details: read-out: GI
[7] = system: Bacillus subtilis; test: Antibacterial activity against Bacillus subtilis ATCC 23857 after 12 hrs; assay type: functional; details: ATCC 23857, 12 h
[8] = system: Escherichia coli; test: Antibacterial activity against Escherichia coli ATCC […] after 8 hrs; assay type: functional
[9] = Cytotoxicity against human A549 cells assessed as growth inhibition at 10 ug/ml after 48 hrs by MTT assay relative to control; assay type: cell-based; details: read-out: GI
[10] = system: Staphylococcus aureus; test: Antibacterial activity against Staphylococcus aureus ATCC 29213 after 12 hrs; assay type: functional; details: ATCC 29213, 12 h
[11] = Selectivity index, ratio of GI90 for human MCF7 cells to MIC90 for dormant state of dormant state of Mycobacterium bovis BCG; assay type: toxicity; details: read-out: Selectivity Index
[12] = system: Mycobacterium tuberculosis; test: Antimycobacterial activity against dormant state of Mycobacterium tuberculosis H37Ra assessed as growth inhibition at 3 ug/ml after 12 days by XTT reduction menadione assay relative to control; assay type: functional; details: 288 h, read-out: GI
[13] = Cytotoxicity against human MCF7 cells assessed as growth inhibition at 30 ug/ml after 48 hrs by MTT assay relative to control; assay type: cell-based; details: read-out: GI
[14] = system: Pseudomonas fluorescens; test: Antibacterial activity against Pseudomonas fluorescens ATCC 13525 after 8 hrs; assay type: functional; details: ATCC 13525, 8 h
[15] = (§1) Cytotoxicity against human MCF7 cells assessed as growth inhibition after 48 hrs by MTT assay; assay type: cell-based; details: MCF7 cells
[16] = system: MCF7; test: as §1; assay type: cell-based; details: mcf7, 48 h
[17] = system: Mycobacterium tuberculosis; test: Antimycobacterial activity against dormant state of Mycobacterium tuberculosis H37Ra assessed as growth inhibition at 30 ug/ml after 12 days by XTT reduction menadione assay relative to control; assay type: functional; details: 288 h, read-out: GI
[18] = Cytotoxicity against human MCF7 cells assessed as growth inhibition at 10 ug/ml after 48 hrs by MTT assay relative to control; assay type: cell-based; details: read-out: GI
[19] = Selectivity index, ratio of GI90 for human HCT116 cells to MIC90 for dormant state of Mycobacterium tuberculosis H37Ra; assay type: toxicity; details: read-out: Selectivity Index
[20] = Cytotoxicity against human A549 cells assessed as growth inhibition at 3 ug/ml after 48 hrs by MTT assay relative to control; assay type: cell-based; details: read-out: GI
[21] = system: Mycobacterium tuberculosis; test: Antimycobacterial activity against dormant state of Mycobacterium tuberculosis H37Ra assessed as growth inhibition at 10 ug/ml after 12 days by XTT reduction menadione assay relative to control; assay type: functional; details: 288 h, read-out: GI
[22] = (§2) Cytotoxicity against human A549 cells assessed as growth inhibition after 48 hrs by MTT assay; assay type: cell-based; details: A549 cells
[23] = system: A549; test: as §2; assay type: cell-based; details: a549, 48 h
[24] = Selectivity index, ratio of GI90 for human HCT116 cells to MIC90 for dormant state of dormant state of Mycobacterium bovis BCG; assay type: toxicity; details: read-out: Selectivity Index
[25] = Cytotoxicity against human A549 cells assessed as growth inhibition at 30 ug/ml after 48 hrs by MTT assay relative to control; assay type: cell-based; details: read-out: GI
[26] = (§3) Cytotoxicity against human HCT116 cells assessed as growth inhibition after 48 hrs by MTT assay; assay type: cell-based, HCT-116; details: HCT116 cells
[27] = system: HCT-116; test: as §3; assay type: cell-based; details: hct-116, 48 h
[28] = Selectivity index, ratio of GI90 for human A549 cells to MIC90 for dormant state of dormant state of Mycobacterium bovis BCG; assay type: toxicity; details: read-out: Selectivity Index
[29] = Cytotoxicity against human HCT116 cells assessed as growth inhibition at 10 ug/ml after 48 hrs by MTT assay relative to control; assay type: cell-based, HCT-116; details: read-out: GI

SMILES: COc1ccc2cc(/C=C3\CNC/C(=C\c4cc5ccc(OC)cc5nc4Cl)C3=O)c(Cl)nc2c1
- selectivity ratio [1]: > 3
- inhibition at 48 h, 3 ug/ml [2]: 28%
- inhibition at 48 h, 30 ug/ml [3]: 67.7%
- selectivity ratio [4]: > 3
- MIC50 [5]: 2.8 µg/mL (≈ 5.53 µM)
- MIC90 [5]: > 30 µg/mL
- inhibition at 48 h, 3 ug/ml [6]: 26.9%
- MIC50 [7]: > 30 µg/mL
- MIC90 [7]: > 30 µg/mL
- MIC50 [8]: > 30 µg/mL
- MIC90 [8]: > 30 µg/mL
- inhibition at 48 h, 10 ug/ml [9]: 29.8%
- MIC50 [10]: > 30 µg/mL
- MIC90 [10]: > 30 µg/mL
- selectivity ratio [11]: > 37
- inhibition of growth at 3 µg/mL [12]: 50.9%
- inhibition at 48 h, 30 ug/ml [13]: 60.9%
- MIC50 [14]: > 30 µg/mL
- MIC90 [14]: > 30 µg/mL
- GI50 at 48 h [15]: > 100 µg/mL
- GI90 [16]: > 100 µg/mL
- inhibition of growth at 30 µg/mL [17]: 65.6%
- inhibition at 48 h, 10 ug/ml [18]: 52.1%
- selectivity ratio [19]: > 3
- inhibition at 48 h, 3 ug/ml [20]: 3.8%
- inhibition of growth at 10 µg/mL [21]: 54.2%
- GI50 at 48 h [22]: > 100 µg/mL
- GI90 [23]: > 100 µg/mL
- selectivity ratio [24]: > 37
- inhibition at 48 h, 30 ug/ml [25]: 36.3%
- GI50 at 48 h [26]: > 100 µg/mL
- GI90 [27]: > 100 µg/mL
- selectivity ratio [28]: > 37
- inhibition at 48 h, 10 ug/ml [29]: 50.9%

SMILES: COc1ccc2cc(/C=C3\CN(C)C/C(=C\c4cc5ccc(OC)cc5nc4Cl)C3=O)c(Cl)nc2c1
- selectivity ratio [1]: > 12
- inhibition at 48 h, 3 ug/ml [2]: -13.4%
- inhibition at 48 h, 30 ug/ml [3]: 14.1%
- selectivity ratio [4]: > 12
- MIC50 [5]: 2.3 µg/mL (≈ 4.42 µM)
- MIC90 [5]: 7.8 µg/mL (≈ 15 µM)
- inhibition at 48 h, 3 ug/ml [6]: -8.6%
- MIC50 [7]: > 30 µg/mL
- MIC90 [7]: > 30 µg/mL
- MIC50 [8]: > 30 µg/mL
- MIC90 [8]: > 30 µg/mL
- inhibition at 48 h, 10 ug/ml [9]: 0%
- MIC50 [10]: > 30 µg/mL
- MIC90 [10]: > 30 µg/mL
- selectivity ratio [11]: > 10
- inhibition of growth at 3 µg/mL [12]: 66.1%
- inhibition at 48 h, 30 ug/ml [13]: 44.1%
- MIC50 [14]: > 30 µg/mL
- MIC90 [14]: > 30 µg/mL
- GI50 at 48 h [15]: > 100 µg/mL
- GI90 [16]: > 100 µg/mL
- inhibition of growth at 30 µg/mL [17]: 98.9%
- inhibition at 48 h, 10 ug/ml [18]: -5.5%
- selectivity ratio [19]: > 12
- inhibition at 48 h, 3 ug/ml [20]: 0%
- inhibition of growth at 10 µg/mL [21]: 100%
- GI50 at 48 h [22]: > 100 µg/mL
- GI90 [23]: > 100 µg/mL
- selectivity ratio [24]: > 10
- inhibition at 48 h, 30 ug/ml [25]: 0%
- GI50 at 48 h [26]: > 100 µg/mL
- GI90 [27]: > 100 µg/mL
- selectivity ratio [28]: > 10
- inhibition at 48 h, 10 ug/ml [29]: -1.3%

SMILES: CN1C/C(=C\c2cc3ccccc3nc2Cl)C(=O)/C(=C/c2cc3ccccc3nc2Cl)C1
- selectivity ratio [1]: > 3
- inhibition at 48 h, 3 ug/ml [2]: 11.4%
- inhibition at 48 h, 30 ug/ml [3]: -20.1%
- selectivity ratio [4]: > 3
- MIC50 [5]: 6.7 µg/mL (≈ 14.6 µM)
- MIC90 [5]: 26.5 µg/mL (≈ 57.6 µM)
- inhibition at 48 h, 3 ug/ml [6]: -0.3%
- MIC50 [7]: > 30 µg/mL
- MIC90 [7]: > 30 µg/mL
- MIC50 [8]: > 30 µg/mL
- MIC90 [8]: > 30 µg/mL
- inhibition at 48 h, 10 ug/ml [9]: 0%
- MIC50 [10]: > 30 µg/mL
- MIC90 [10]: > 30 µg/mL
- selectivity ratio [11]: > 13
- inhibition of growth at 3 µg/mL [12]: 15.6%
- inhibition at 48 h, 30 ug/ml [13]: 35.1%
- MIC50 [14]: > 30 µg/mL
- MIC90 [14]: > 30 µg/mL
- GI50 at 48 h [15]: > 100 µg/mL
- GI90 [16]: > 100 µg/mL
- inhibition of growth at 30 µg/mL [17]: 98%
- inhibition at 48 h, 10 ug/ml [18]: 24.3%
- selectivity ratio [19]: > 3
- inhibition at 48 h, 3 ug/ml [20]: -14.6%
- inhibition of growth at 10 µg/mL [21]: 51.9%
- GI50 at 48 h [22]: > 100 µg/mL
- GI90 [23]: > 100 µg/mL
- selectivity ratio [24]: > 13
- inhibition at 48 h, 30 ug/ml [25]: -16.9%
- GI50 at 48 h [26]: > 100 µg/mL
- GI90 [27]: > 100 µg/mL
- selectivity ratio [28]: > 13
- inhibition at 48 h, 10 ug/ml [29]: -15.2%

SMILES: O=C1/C(=C/c2cc3cc(F)ccc3nc2Cl)CNC/C1=C\c1cc2cc(F)ccc2nc1Cl
- selectivity ratio [1]: > 3
- inhibition at 48 h, 3 ug/ml [2]: 40.9%
- inhibition at 48 h, 30 ug/ml [3]: 55.8%
- selectivity ratio [4]: > 3
- MIC50 [5]: 13.7 µg/mL (≈ 28.4 µM)
- MIC90 [5]: > 30 µg/mL
- inhibition at 48 h, 3 ug/ml [6]: 35%
- MIC50 [7]: > 30 µg/mL
- MIC90 [7]: > 30 µg/mL
- MIC50 [8]: > 30 µg/mL
- MIC90 [8]: > 30 µg/mL
- inhibition at 48 h, 10 ug/ml [9]: 0%
- MIC50 [10]: > 30 µg/mL
- MIC90 [10]: > 30 µg/mL
- selectivity ratio [11]: > 10
- inhibition of growth at 3 µg/mL [12]: 41.1%
- inhibition at 48 h, 30 ug/ml [13]: 48.5%
- MIC50 [14]: > 30 µg/mL
- MIC90 [14]: > 30 µg/mL
- GI50 at 48 h [15]: > 100 µg/mL
- GI90 [16]: > 100 µg/mL
- inhibition of growth at 30 µg/mL [17]: 76.9%
- inhibition at 48 h, 10 ug/ml [18]: 41.1%
- selectivity ratio [19]: > 3
- inhibition at 48 h, 3 ug/ml [20]: -5.8%
- inhibition of growth at 10 µg/mL [21]: 49%
- GI50 at 48 h [22]: > 100 µg/mL
- GI90 [23]: > 100 µg/mL
- selectivity ratio [24]: > 10
- inhibition at 48 h, 30 ug/ml [25]: 0%
- GI50 at 48 h [26]: 27.6 µg/mL (≈ 57.1 µM)
- GI90 [27]: > 100 µg/mL
- selectivity ratio [28]: > 10
- inhibition at 48 h, 10 ug/ml [29]: 45.3%

SMILES: CO[C@H]1/C=C/O[C@@]2(C)Oc3c(C)c(O)c4c(O)c(c(/C=N/N5CCN(C)CC5)c(O)c4c3C2=O)NC(=O)/C(C)=C\C=C\[C@H](C)[C@H](O)[C@@H](C)[C@@H](O)[C@@H](C)[C@H](OC(C)=O)[C@@H]1C [RIFAMPIN]
- selectivity ratio [1]: > 133
- selectivity ratio [4]: > 133
- MIC50 [5]: 0.0019 µg/mL (≈ 0.00231 µM)
- MIC90 [5]: 0.02 µg/mL (≈ 0.0243 µM)
- selectivity ratio [11]: > 123
- GI50 at 48 h [15]: > 100 µg/mL
- GI90 [16]: > 100 µg/mL
- selectivity ratio [19]: > 133
- GI50 at 48 h [22]: > 100 µg/mL
- GI90 [23]: > 100 µg/mL
- selectivity ratio [24]: > 123
- GI50 at 48 h [26]: > 100 µg/mL
- GI90 [27]: > 100 µg/mL
- selectivity ratio [28]: > 123
